{"source": "patent US9296687B2", "about": "“Modulators of HSP70/DnaK function and methods of use thereof” (The Trustees of the University of Pennsylvania, priority 2008, dated 2016)", "key": {"Eμ-Myc transgenic mice": {"test_system": "Eμ-Myc transgenic mice", "assay": "Eμ-Myc mouse model of lymphomagenesis", "assay_type": "in vivo", "settings": "20 mg/kg weekly i.p. from 6 weeks of age", "protocol": "To evaluate the efficacy of PES as a chemopreventative agent, Eμ-Myc transgenic mice were injected every 5 days, starting at 8 weeks of age, with either vehicle or PES (40 mg/kg) prepared in PBS. All animals received a total of 7 injections, either with PES or vehicle. Consequently, no injection was given after day 86. All mice were observed daily for signs of morbidity and the development of lymphoma. All experiments with mice were approved by, and conformed to, the guidelines of the Institutional Animal Care and Use Committee of the Fox Chase Cancer Center. These mice may also be used to advantage to test the beneficial therapeutic combinations of agents and/or treatments described herein.\nBeginning at 6 weeks of age, Eμ-myc transgenic mice were treated either with vehicle, 20 mg/kg PES or 20 mg/kg PES-Cl with weekly i.p. injections of tested compound (FIG. 27)."}, "H1299 and FaDu cells": {"test_system": "H1299 and FaDu cells", "assay": "Western blot of autophagy and apoptosis markers", "assay_type": "cell-based, human", "settings": "10 μM, 24, 48 and 72 hours", "protocol": "Tumorogenic cells H1299 and FaDu cells were seeded in 10 cm plates and were treated with 10 μM PES or 10 μM PES-Cl. DMSO treated cells were used as a vehicle treated control. Twenty-four, 48 and 72 hours post-treatment the cells were scrapped and protein extracts were generated. Western blotting was performed as described hereinabove. The antibodies used in the protocol were p62 (Santa Cruz), Hsp70 (Cell Signaling), cleaved lamin A (Cell Signaling), Hsp40 (Cell Signaling), γH2A.X (Millipore), and actin (Sigma)."}, "FADU cells": {"test_system": "FADU cells", "assay": "Guava Nexin assay (Annexin V / 7-AAD)", "assay_type": "cell-based, human", "settings": "10 μM, 24, 48 and 72 hours", "excerpt": "(§1) The effect of PES-Cl on apoptosis was observed using Guana Nexin Reagent (Millipore) in H1299 and FaDu cells. The Guana Nexin Assay utilizes Annexin V-PE to detect phosphatidylserine (PS) on the external membrane of apoptotic cells. The cell impermeant dye, 7-AAD, is also used in the Guava Nexin Assay as an indicator of cell membrane structural integrity. 7-AAD is excluded from live, healthy cells as wells as early apoptotic cells. Three populations of cells can be distinguished in the assay: Non-Apoptotic cells (Annexin V(−) and 7-AAD(−)), Early Apoptotic cells (Annexin V(+) and 7-AAD(−)), and Late Stage Apoptotic and dead cells (Annexin V(+) and 7-AAD(+)). The H1299 and FaDu cells were seeded on 24-well plates and treated with 10 μM PES or 10 μM PES-Cl. DMSO treated cells were used as a vehicle control. Four, 24 and 48 hours post-treatment, the H1299 cells were washed with PBS and trypsinized. For FaDu cells, the time course was 24, 48 and 72 hours. The cells were pelleted and resuspended in Guava Nexin reagent as per the manufacturer instructions and the readings were obtained with a Guava reader (Guava Technologies, Millipore). The total number of cells that were in Late Stage Apoptosis or dead (by necrotic or apoptotic mechanisms) was analyzed in density plots to determine as Annexin V positive."}, "H1299 cells [1]": {"test_system": "H1299 cells", "assay": "Guava Nexin assay (Annexin V / 7-AAD)", "assay_type": "cell-based, human", "settings": "10 μM, 4, 24 and 48 hours", "excerpt": "as §1"}, "[2]": {"test_system": "H1299 and FaDu; 6113 and WI38", "assay": "MTT assay, tumorogenic versus normal fibroblast cell lines", "assay_type": "cell-based, human", "settings": "various concentrations, 48 hours", "protocol": "(§2) H1299 cells were seeded on […] and treated with 10 μM PES or 10 μM PES-Cl. DMSO treated cells were used as a control and the proliferation of the H1299 cells was observed over 24 and 48 hours of treatment. The cells were imaged by light microscopy with 20× magnification (FIG. 28). Non-tumorogenic and tumorogenic cells were then treated with PES-Cl to observe its toxicity and effect on proliferation. Two tumorogenic cell lines (H1299 and FaDu) and two normal fibroblast cell lines (6113 and WI38) were seeded on a 96-well plate. The cells were treated with various concentrations of PES and PES-Cl. Forty-eight hours post-treatment MTT assays (Cayman Chemical Company) were performed (FIG. 29)."}, "H1299 cells [3]": {"test_system": "H1299 cells", "assay": "Proliferation observed by light microscopy", "assay_type": "cell-based, human", "settings": "10 μM, 24 and 48 hours", "protocol": "as §2"}, "[4]": {"test_system": "SKBR3 human breast adenocarcinoma cells", "assay": "MTT assay", "assay_type": "cell-based", "settings": "various concentrations, 72 hours", "protocol": "SKBR3 human breast adenocarcinoma cells were seeded and treated with PES and PES-Cl at various concentrations."}, "Scc56 cell line": {"test_system": "Scc56 cell line", "assay": "MTT cell viability assay, PES-Cl with Temsirolimus", "assay_type": "cell-based, human", "settings": "singly and together, varying concentrations", "protocol": "PES-Cl was tested in combination with Temsirolimus, an mTOR inhibitor, to determine whether they act synergistically to kill cells. Head and neck cancer cells of the Scc56 cell line were treated with PES-Cl and Temsirolimus, singly and together, at varying concentrations utilizing an MTT assay."}, "HSP70": {"molecular_target": "HSP70 (Homo sapiens, UniProt P0DMV8)", "sequence (P0DMV8 2-641)": "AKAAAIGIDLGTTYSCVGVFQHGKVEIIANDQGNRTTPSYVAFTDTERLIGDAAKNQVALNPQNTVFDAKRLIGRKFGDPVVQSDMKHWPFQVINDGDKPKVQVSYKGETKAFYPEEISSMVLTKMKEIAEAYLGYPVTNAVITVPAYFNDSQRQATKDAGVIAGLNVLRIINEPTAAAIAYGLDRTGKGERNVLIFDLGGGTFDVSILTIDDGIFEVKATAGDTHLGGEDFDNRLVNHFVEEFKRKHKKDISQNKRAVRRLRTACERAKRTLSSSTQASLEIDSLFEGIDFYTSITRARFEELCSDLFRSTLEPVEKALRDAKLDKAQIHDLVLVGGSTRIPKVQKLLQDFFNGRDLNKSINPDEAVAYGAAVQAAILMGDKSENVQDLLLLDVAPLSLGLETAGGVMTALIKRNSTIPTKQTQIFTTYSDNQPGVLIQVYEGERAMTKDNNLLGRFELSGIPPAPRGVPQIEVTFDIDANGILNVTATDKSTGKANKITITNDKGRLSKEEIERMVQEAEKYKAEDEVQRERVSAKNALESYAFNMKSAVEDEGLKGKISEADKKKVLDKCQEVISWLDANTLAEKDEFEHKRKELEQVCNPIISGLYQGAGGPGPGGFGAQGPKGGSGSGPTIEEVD", "assay": "Capture of HA-tagged HSP70 constructs from transfected H1299 cells with biotinylated compound", "assay_type": "binding", "set-up": "expressed in transfected cells; host or cells: H1299", "settings": "biotinylated compound, 6 hours", "protocol": "FIG. 1. PES Binds to HSP70. (A) Whole cell extracts (WCE) prepared from A875 and BCL-xL over-expressing U2OS human osteosarcoma cells (BX-U2OS) cells, treated with Biotin or Biotin-PES (B-PES), were captured using NeutrAvidin agarose resins. HSP70-family proteins were identified as the major product in the excised band of ˜70 kDa shown in both Coomassie gels. (B and C) WCE were prepared from the cell lines indicated following 24 h treatment with 20 μM Biotin or B-PES and examined for the expression of proteins indicated (left panel of B and C) by western blot analysis; note that different exposure times were used to visualize these proteins. […] (D) In vitro evidence for an interaction between B-PES and HSP70. Full-length human HSP70 and human HSP90 proteins were in vitro translated in the presence of ^35S-methionine, mixed with B-PES coupled to NeutrAvidin resins, and eluted using 100 mM DTT. The resulting DTT eluates were separated by polyacrylamide gel electrophoresis (SDS-PAGE) and visualized by autoradiography. (E) B-PES interacts with the C-terminal region of HSP70. H1299 cells were transfected with the indicated hemagglutinin (HA)-tagged constructs and exposed to B-PES. B-PES containing complexes were captured by NeutrAvidin Resins, eluted following 100 mM DTT treatment, and immunoblotted with anti-HA antibody following SDS-PAGE. (F) Non-transformed human IMR90 fibroblasts or H1299 lung carcinoma cells were treated with the indicated concentrations of PES for 24 h and cell viability was determined by MTT assays. (G) WCE were prepared from the cell lines indicated following 5 hr treatment with 20 μM PES or B-PES and examined for the expression of proteins indicated (left panel) by western blot analysis; note that different exposure times were used to visualize these proteins. B-PES-containing complexes were captured by NeutrAvidin resins, eluted following 50 mM DTT treatment, and immunoblotted using the indicated antibodies.\nThe free amide group of PES-Cl was biotinylated and added to HA-tagged HSP70-transfected H1299 cells. The treatment of the cells occurred for 6 hours. The complexes were pulled down with NeutrAvidin beads, eluted with 100 mM DTT treatments, separated with SDS-PAGE and detected with anti-HA antibody (Millipore) by Western blot.\nDocking studies were performed using the C-terminal HSP70 crystal structure (FIG. 32) to elucidate the PES binding site in silico (FIG. 33). Blind docking methods were used in the program AutoDock to locate potential PES binding sites. These methods use a course grid docking approach, encompassing the entire protein, to identify favorable binding sites using a known binding ligand, and are examined by hand to support the AutoDock data. […]"}}, "note": "“Also recorded” adds a separate entry of the source.", "data": [{"compound": "NS(=O)(=O)C#Cc1cccc(Cl)c1", "note": "[PES-Cl, 2-(3-chlorophenyl)-ethynesulfonamide]", "values": [{"measurement": "survival", "setting": "Eμ-Myc transgenic mice", "result": "extended survival"}, {"measurement": "apoptosis", "setting": "H1299 and FaDu cells", "result": "induced apoptosis"}, {"measurement": "autophagy", "setting": "H1299 and FaDu cells", "result": "inhibited autophagy"}, {"measurement": "apoptosis and cell death (Annexin V positive cells)", "setting": "FADU cells", "result": "induced apoptosis and cell death; also recorded: superior compound for induction of apoptosis"}, {"measurement": "apoptosis and cell death (Annexin V positive cells)", "setting": "H1299 cells [1]", "result": "induced apoptosis and cell death; also recorded: superior compound for induction of apoptosis"}, {"measurement": "cell survival, tumorogenic versus non-tumorogenic cells", "setting": "[2]", "result": "greater concentration dependent effect on cell survival in tumorogenic cells; also recorded: superior and specific inhibitor of proliferation of tumor cells with limited toxicity to normal cells"}, {"measurement": "proliferation", "setting": "H1299 cells [3]", "result": "inhibits the proliferation of H1299 cells"}, {"measurement": "cytotoxicity compared to PES", "setting": "[4]", "result": "superior cytotoxic agent when compared to PES"}, {"measurement": "combination effect with Temsirolimus", "setting": "Scc56 cell line", "result": "synergistic effect resulting in enhanced dose-dependent cytotoxicity"}, {"measurement": "interaction with HA-tagged HSP70", "setting": "HSP70", "result": "interact with HSP70"}]}]}
